Patent US8841274B2, “Protein arginine N-methyltransferase-5 method of cancer treatment” (priority 2009, dated 2014)

Key:
Assay type in all cases: cell-based
PRMT5 [1] = assay: PRMT5 depletion by siRNA in U2OS cells, E2F-1 and E2F target gene levels
Text: The depletion of PRMT5 co-incided with increased levels of E2F-1 protein (FIG. 3c), which is compatible with the increased level and stability of the KK and KKK mutants (FIG. 3b). […] Extracts were immunoblotted with anti-PRMT5 and E2F-1, and GAPDH levels served as a loading control.
Further, E2F-1 RNA was higher under conditions of PRMT5 depletion, contrasting with the control siRNA treatment. […] RNA was extracted from cells treated as described above, and RNA levels of E2F-1 examined. RNA levels of 18S and GAPDH served as controls. […] Extracts were immunoblotted with anti-PRMT5, E2F-1, p73, Chk2, Chk1 and Cdc2 as indicated. Levels of GAPDH served as the loading control.
FIGS. 6f and 6g address the role of one of the key E2F target genes in the PRMT5 dependent apoptosis, i.e. p73. […] PRMT5 (P) or control (C) siRNA was transfected into U2OS cells and cells harvested at 72 h post-transfection. Both RNA (i) and protein (ii) levels were measured, as indicated, for p73, 18S and GAPDH (i) and PRMT5, E2F-1, p73 and GAPDH (ii). […] This experiment supports activation of the E2F1 pathway leading to apoptosis upon PRMT5 knockdown, i.e. PRMT5 normally acts to suppress activation of the pathway.
Oligofectamine transfection reagent (Invitrogen) was used to transfect cells with siRNAs for 72 h. siRNA treatment of cells was carried out using siRNA non-targeting (Dharmacon) as control or PRMT5 (5′ […] (SEQ ID NO:1)). p73 smart pool siRNA was from Dharmacon. siRNA treatment was for 72 h at 50 nM.

[2] = test system: p73-luciferase or cyclinE-luciferase; assay: Reporter assay with E2F-responsive promoters; settings: U2OS cells, PRMT5 vs control siRNA, 48 h
Procedure: To further explore the role of arginine methylation in the transcription properties of E2F-1, wild-type E2F-1 was compared with the KK and KKK mutants in a reporter-based transfection assay, using E2F-responsive promoters derived from E2F target genes. The assay was performed under conditions in which each mutant protein was expressed at an equivalent level to wild-type E2F-1 (FIG. 4aii and bii), thus ruling out any difference in activity that could be attributed to protein levels. […] FIGS. 4a and b show the transcription properties of wild-type E2F-1, KK and KKK mutants. U2OS cells were transfected with expression vectors encoding WT or mutant E2F-1 protein, together with p73-luciferase (A) or cyclinE-luciferase (B) for 48 h as indicated, and pCMV-βgal to monitor transfection efficiency. Relative luciferase activity (luciferase/βgal) is shown together with expression level of ectopic proteins; n=3. […] PRMT5 (P) or control (C) non-targeting siRNA was transfected into U2OS cells together with p73-luciferase (i) or cyclinE-luciferase (ii) for 48 h, together with pCMV-βgal to monitor transfection efficiency. Relative luciferase activity is shown together with expression level of the ectopic proteins.
Cells were transfected with expression vectors (1 μg) encoding WT or the mutant E2F-1 proteins as indicated with E2F responsive luciferase reporters, namely p73-luciferase or cyclinE-luciferase, together with pCMV-βgal to monitor transfection efficiency. Cells were harvested, lysed 48 h post-transfection and luciferase activity measured as previously described (Janson et al 2008).

C33A cells = assay: Apoptosis upon PRMT5 depletion in C33A cells; settings: PRMT5 vs control siRNA
Procedure: (§1) The graph (i) represents the relative number of sub-G I cells (compared to the control treatment) in the indicated conditions; and (ii) the level of PRMT5 and E2F-1; n=3.
Cleaved PARP is indicated by the arrow.
(§2) Cells were transfected with the indicated expression vectors together with pBB14-GFP (for 48 h) to monitor transfection efficiency or siRNA (for 48 h or 72 h) with or without treatment of the DNA damage agent for the last 16 h. Then, cells were fixed and stained with propidium iodide and analyzed by Flow Cytometry.

PRMT5 [3] = biological target: PRMT5 (Homo sapiens, UniProt O14744); assay: Ubiquitination assay in U2OS cells after siRNA; design: The indicated GST proteins were incubated with U2OS cell lysate; endogenous in cells; host or cells: U2OS; settings: PRMT5 vs control siRNA, MG132 20 nM 4 h
Procedure: U2OS cells were transfected with PRMT5 (P) or control (C) siRNA. After 24 h, cells were transfected with expression vectors encoding wild-type (WT) E2F-1 or the KKK mutant (2 μg) and His 6-ubiquitin (4 μg) as indicated. Cells were treated with MG132 ([…]) for 4 h before being collected. Cell lysates and Ni2+ pull-down eluates were analysed as described. Quantitation of ubiquitin signals was performed using ImageJ 1.43u, and the input protein levels are shown underneath.
Cells were transfected with pcDNA3.1a-ubiquitin (His-tagged) and treated as described. Briefly cells were harvested into 8 M urea, 0.1 M Na2HPO4/NaH2PO4, 0.01 M Tris-HCl, and pH 8.0. Cell lysate was incubated with nickel (Ni^2+-NTA)-agarose beads (Qiagen), 5 mM imidazole and 10 mM β-mercapthoethanol overnight at 4° C. The beads were collected and washed as described (Liu and Warbrick, 2006). Bound proteins were then eluted and assayed by immunoblotting.

U2OS cells = assay: Apoptosis (sub-G1) by FACS in U2OS cells; settings: n=3
Procedure: Whether arginine methylation influences E2F-1-dependent apoptosis was investigated by comparing the ability of wild-type E2F-1 to the KK and KKK mutants to induce cells with a sub-G1 DNA content (Stevens et al 2003). […] U2OS cells were transfected with expression vectors encoding wild-type E2F-1, KK and KKK as indicated for 48 h and analysed by FACS as described. The graph represents the relative change in sub-G1 populations compared to the empty vector control treatment; n=2.
as §1
(§3) PRMT5 (P) or control (C) non-targeting siRNA (25 nM) was transfected into HCT116 p53+/+ (i), HCT116 p53−/− (ii) or U2OS (iii) cells and the cells were harvested 72 h post-transfection and analysed by FACS. The graph represents the actual number of sub-G1 cells in the indicated conditions, and the immunoblot the level of PRMT5 and actin control; n=3.
PRMT5 (P), E2F-1 (E) or control (C) non-targeting siRNA was transfected into U2OS cells and harvested 72 h post-transfection and analysed by FACS as described.
as §2

MEFs = assay: Apoptosis by FACS in MEFs; settings: MEFs (normal non-cancer cells), 72 h; n=3
Procedure: PRMT5 (P) or control (C) non-targeting siRNA was transfected into MEFs and cells harvested at 72 h post-transfection as indicated. Cell extracts were immunoblotted with anti-PRMT5 and anti-E2F-1. Actin levels served as the loading control.
MEFs were treated as described in 6c and thereafter analysed by FACS. In FIG. 6d the black bar represents the effect of C siRNA, and clear bar the effect of P siRNA; n=3.
as §2

HCT116 p53−/− = assay: Apoptosis (sub-G1) by FACS in HCT116 p53−/− cells; settings: siRNA 25 nM, 72 h, n=3
Procedure: as §3, §2

SAOS2 = assay: Apoptosis (sub-G1) by FACS in SAOS2 cells with ectopic E2F-1; settings: SAOS2 with wild-type E2F-1 expression vector 1 μg, 72 h; n=3
Procedure: PRMT5 (P) or control (C) non-targeting siRNA was transfected into SAOS2 together with an expression vector encoding wild-type E2F-1 (1 μg) as indicated, harvested at 72 h and processed as described in (a); n=3. […] This is consistent with the idea that PRMT5 mediates its effects through E2F-1.
as §2

HCT116 p53+/+ = assay: Apoptosis (sub-G1) by FACS in HCT116 p53+/+ cells; settings: siRNA 25 nM, 72 h, n=3
Procedure: as §3, §2

Chain of PRMT5 (Homo sapiens, UniProt O14744) (O14744 whole entry): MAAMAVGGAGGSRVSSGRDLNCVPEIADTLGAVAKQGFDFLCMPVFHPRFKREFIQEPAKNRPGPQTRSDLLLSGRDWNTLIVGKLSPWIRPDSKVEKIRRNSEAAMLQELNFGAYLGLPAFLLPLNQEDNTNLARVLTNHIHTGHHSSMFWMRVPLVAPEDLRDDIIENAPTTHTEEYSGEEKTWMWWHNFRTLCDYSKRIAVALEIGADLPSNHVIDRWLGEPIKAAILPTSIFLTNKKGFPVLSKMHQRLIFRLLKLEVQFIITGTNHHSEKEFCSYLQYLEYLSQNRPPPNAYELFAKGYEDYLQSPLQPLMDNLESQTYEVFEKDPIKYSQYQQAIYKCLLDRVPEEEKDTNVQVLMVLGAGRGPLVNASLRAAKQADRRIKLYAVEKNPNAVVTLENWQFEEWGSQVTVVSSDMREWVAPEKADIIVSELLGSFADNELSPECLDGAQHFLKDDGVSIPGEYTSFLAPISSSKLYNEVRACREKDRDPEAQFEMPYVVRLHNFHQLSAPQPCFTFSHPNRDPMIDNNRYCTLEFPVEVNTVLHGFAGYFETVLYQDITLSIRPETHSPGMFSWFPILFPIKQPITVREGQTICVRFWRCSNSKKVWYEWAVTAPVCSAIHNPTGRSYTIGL

In the case of “5′ CCGCUAUUGCACCUUGGAA (SEQ ID NO:1) [PRMT5 siRNA]”, the E2F-1 protein levels (PRMT5 [1]; 72 h, with or without etoposide 10 μM) is reported as “increases E2F-1 protein levels”, the “protein levels of E2F target genes (p73, Chk1, Chk2, Cdc2)” value (PRMT5 [1]; 72 h, with or without etoposide or doxorubicin) is reported as “induced” and the “p73 RNA and protein levels” value (PRMT5 [1]; 72 h post-transfection) is reported as “upregulated”. For the same substance, the “E2F-1 RNA levels” value (PRMT5 [1]; contrasting with control siRNA) was “higher”, the “activity of E2F-1 responsive promoters” value [2] was “more active” and the apoptosis (C33A cells) was “increased level of apoptosis”. For the same substance, the E2F-1 ubiquitination (PRMT5 [3]) was “affects the ubiquitination of E2F-1”, the “apoptosis (sub-G1 cells)” value (U2OS cells; U2OS cells, 72 h post-transfection, with or without etoposide 10 μM 16 h) was “increased level of apoptosis” and the “apoptosis (% sub-G1 cells)” value (U2OS cells; U2OS, siRNA 25 nM, 72 h) was “induces apoptosis”. The apoptosis (MEFs) was “no apoptosis”, the “apoptosis (% sub-G1 cells)” value (HCT116 p53−/−) was “induces apoptosis” and the apoptosis (SAOS2) was “enhanced levels of apoptosis”. For the same substance, the “apoptosis (% sub-G1 cells)” value (HCT116 p53+/+) was “induces apoptosis”.
